Laboratory results reported in patent US11884710B2, “Peptide compounds and methods of use in wound healing” (priority 2013, dated 2024).

Experiments:
[1] = test system: P. aeruginosa (ATCC 27853); test: Mouse model of Pseudomonas (bacterial) keratitis; format: in vivo; conditions: 48 hours post-infection
Procedure: A circular wound was created on the mouse cornea by removing the epithelium and infected with 10^5 colony forming units (CFU) of P. aeruginosa (ATCC® 27853™ (American Type Culture Collection, Manassas, Va.)). Infected wounds were treated with saline (0.9% sodium chloride, vehicle control) or saline containing indicated concentrations of peptide every 15 minutes for 2 hours, then every 30 minutes for 3 hours on the first day. Infected wounds were treated twice on the second day and once on the third day. Mice were killed at 48 hours post-infection, and CFU/eye were quantified. The means were plotted and are representative of 5 to 9 mice per group. Mann Whitney test was performed for each group as compared to the saline control group. *P=0.014. In compound names such as BCC02-5RMP used herein, “R” represents arginine, and “MP” represents a small PEG molecule as defined elsewhere herein (such as, for example but not by way of limitation, “AEEP”).
(§1) A circular wound was created on the mouse cornea by removing the epithelium, and the wound was infected with 10^5 CFU of P. aeruginosa (ATCC® 27853™ (American Type Culture Collection, Manassas, Va.)). Infected wounds were treated with saline or saline containing indicated concentrations (2, 5, 10, and 20 mg/ml) of peptide every 30 minutes for 6 hours on the first day. Infected wounds were treated twice on the second day and once on the third day. Mice were killed at 48 hours post-infection, and the CFU/eye were quantified. The means are plotted and are representative of 5 mice per group. Mann Whitney test was performed for each group as compared to the saline control group. *P=0.015 and **P=0.097.
as §1, with “representative of 4 to 5 mice” for “representative of 5 mice”, “control group.” for “control group. *P=0.015 and **P=0.097.”
as §1, with “group. **P=0.0079 by” for “group.”, “test” for “test was performed for each group”, “group.” for “group. *P=0.015 and **P=0.097.”
A circular wound (2 mm) was created on the mouse cornea by removing the epithelium and infecting the wound with 10^5 CFU of P. aeruginosa (ATCC® 27853™ (American Type Culture Collection, Manassas, Va.)). Infected wounds were treated with saline or saline containing indicated concentrations of peptide every 15 minutes for 2 hours, then every 30 minutes for 3 hours on the first day. […] Mice were killed at 48 hours post-infection, and the colony forming units per eye (CFU/eye) were quantified. […]

PKCδ = test: Immunofluorescence for PKCδ in HCEC monolayers; format: cell-based, human; conditions: CAP37 250 and 500 ng/ml; 15 minutes; scratched and non-scratched monolayers
Procedure: (§2) HCEC monolayers were grown to confluency and were scratched with a 10 μl pipette tip or left unscratched, and then the monolayers were treated for 15 minutes with (A-B) buffer, (C-D) PMA (1 μM), (E-F) 250 ng/ml CAP37, and (G-J) 500 ng/ml CAP37. Cells were stained for PKCδ (250 ng/ml; (A-H)), and PKCα (1 μg/ml; (I-J)) and detected using immunofluorescence (4 μg/ml, ALEXA FLUOR® 488 dye (Life Technologies Corp., Grand Island, N.Y.)). […] Scratched monolayers that were treated for 18 hours with CAP37 (250 ng/ml; (L)) or left untreated (K) were stained for PKCδ. […] Scale bars, 20 μm.
(§3) Immunofluorescence: HCECs and primary HCECs were cultured on Lab-Tek® II glass chamber slides (Nunc, Rochester, N.Y.) and starved overnight in basal media. For wounding studies, monolayers were scratched with a 10 μl pipette tip or left unscratched and treated with 1 μM phorbol 12-myristate 13-acetate (PMA, Sigma-Aldrich), rCAP37 (25-500 ng/ml), or basal KSFM (Gibco) for 15 minutes. After treatment, the cells were fixed in 4% (v/v) formaldehyde solution (Thermo, Rockford, Ill.) in PBS (Gibco) for 20 minutes at room temperature followed by permeabilization in 0.5% TRITON™-X 100 (Mallinckrodt, St. Louis, Mo.) in PBS for 10 minutes. Remaining formaldehyde was quenched with 0.05 M ammonium chloride (NH4Cl, Sigma-Aldrich, St. Louis, Mo.) in PBS for 10 minutes. […]

PKCα = test: Immunofluorescence for PKCα in HCEC monolayers; format: cell-based, human; conditions: CAP37 500 ng/ml; 15 minutes
Procedure: as §2, §3

**Q.** With “GTRCQVAGWGSWHSGGRLSRFPRFVNV (derivative of peptide of CAP37 protein) [Peptide 120-146WH]” as the molecule, how does the “CFU/eye vs saline, in words” value ([1]; topical doses of 10 and 20 mg/ml) read?
**A.** The value was “significantly reduced the CFU/eye”.

**Q.** For “GTRCQVAGWGSWRSGGRLSRFPRFVNV (derivative of peptide of Homo sapiens CAP37 protein) [Peptide 120-146WR]”, which “infection (CFU/eye) vs saline, in words” value ([1]; topical 5, 10, and 20 mg/ml) is on record?
**A.** The value was “significantly reduced infection”.

B1: CAP37: cationic antimicrobial protein of Mr 37 kDa; recombinant CAP37 produced in human embryonic kidney (HEK) 293 cells (protein)
chain: IVGGRKARPRQFPFLASIQNQGRHFCGGALIHARFVMTAASCFQSQNPGVSTVVLGAYDLRRRERQSRQTFSISSMSENGYDPQQNLNDLMLLQLDREANLTSSVTILPLPLQNATVEAGTRCQVAGWGSQRSGGRLSRFPRFVNVTVTPEDQCRPNNVCTGVLTRRGGICNGDGGTPLVCEGLAHGVASFSLGPCGRGPDFFTRVALFRDWIDGVLNNPGP
**Q.** What does the source list for B1?
**A.** PKCδ staining, in words (PKCδ): dose-dependent increase in PKCδ staining; PKCα staining, in words (PKCα): no increase in PKCα staining
